Results filed as inconclusive are left out.
Tested on: nude mice, LX-1 lung xenograft intrarenal, tumor weight T/C
Assay: NCI In Vivo Anticancer Drug Screen. Data for tumor model Human Lung LX-1 Xenograft (intrarenal inoculation) in NU/NU Swiss (nude) mice
Settings: endpoint: mean tumor weight change, higher = larger tumour
Method in brief: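 Tumor-bearing mice receive test compound or vehicle; tumor size is then measured in each group. The treated value is divided by the vehicle value to give T/C.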

[1] = dose: 100.0 mg/kg/injection, schedule: Q01DX010 (sc), vehicle: saline with Tween-80
[2] = dose: 200.0 mg/kg/injection, schedule: Q01DX010 (sc), vehicle: saline with Tween-80
[3] = dose: 12.5 mg/kg/injection, schedule: Q01DX010 (sc), vehicle: saline with Tween-80
[4] = dose: 25.0 mg/kg/injection, schedule: Q01DX010 (sc), vehicle: saline with Tween-80
[5] = dose: 50.0 mg/kg/injection, schedule: Q01DX010 (sc), vehicle: saline with Tween-80
[6] = dose: 300.0 mg/kg/injection, schedule: Q04DX003 (sc), vehicle: Klucel (hydroxypropylcellulose) (HPC)
[7] = dose: 600.0 mg/kg/injection, schedule: Q04DX003 (sc), vehicle: Klucel (hydroxypropylcellulose) (HPC)
[8] = dose: 1200.0 mg/kg/injection, schedule: Q04DX003 (sc), vehicle: Klucel (hydroxypropylcellulose) (HPC)
[9] = dose: 2400.0 mg/kg/injection, schedule: Q04DX003 (sc), vehicle: Klucel (hydroxypropylcellulose) (HPC)

With `CCC1=C2C(=O)c3ccccc3C2=C(C)S(=O)(=O)O1` the T/C (dose: 300.0 mg/kg/injection, schedule: Q04DX003 (sc), vehicle: saline with Tween-80) was 66 % of control, the T/C (dose: 600.0 mg/kg/injection, schedule: Q04DX003 (sc), vehicle: saline with Tween-80) was 70 % of control and the T/C (dose: 1200.0 mg/kg/injection, schedule: Q04DX003 (sc), vehicle: saline with Tween-80) was 89 % of control. The T/C (dose: 2400.0 mg/kg/injection, schedule: Q04DX003 (sc), vehicle: saline with Tween-80) was 86 % of control.

For `C[CH2][Sn]([CH2]C)([O]S(C)(=O)=O)[O]S(C)(=O)=O`, the T/C (dose: 3.13 mg/kg/injection, schedule: Q04DX003 (sc), vehicle: saline with Tween-80) was 107 % of control, the T/C (dose: 6.25 mg/kg/injection, schedule: Q04DX003 (sc), vehicle: saline with Tween-80) was 109 % of control and the T/C (dose: 12.5 mg/kg/injection, schedule: Q04DX003 (sc), vehicle: saline with Tween-80) was 102 % of control. For the same compound, the T/C (dose: 25.0 mg/kg/injection, schedule: Q04DX003 (sc), vehicle: saline with Tween-80) was 99 % of control.

With `Cc1cc(O)c(N=Nc2ccc(C(=O)O)cc2)cc1C` the T/C [1] was 77 % of control, the T/C [2] was 67 % of control and the T/C (dose: 400.0 mg/kg/injection, schedule: Q01DX010 (sc), vehicle: saline with Tween-80) was 62 % of control. For the same compound, the T/C (dose: 800.0 mg/kg/injection, schedule: Q01DX010 (sc), vehicle: saline with Tween-80) was 59 % of control.

For `CC(=O)C1=C(O)C2(O)C(=O)c3c(c(C)c4ccc(C)c(O)c4c3O)CC2C(N)C1=O` (stereo not drawn), the T/C (dose: 50.0 mg/kg/injection, schedule: Q04DX003 (sc), vehicle: saline) was 107 % of control, the T/C (dose: 100.0 mg/kg/injection, schedule: Q04DX003 (sc), vehicle: saline) was 110 % of control and the T/C (dose: 200.0 mg/kg/injection, schedule: Q04DX003 (sc), vehicle: saline) was 61 % of control. The T/C (dose: 400.0 mg/kg/injection, schedule: Q04DX003 (sc), vehicle: saline) was 51 % of control.

`COC1OC(CO)C(O)C(NC(=O)N(C)N=O)C1O` (stereo not drawn) was tested, and the T/C (dose: 800.0 mg/kg/injection, schedule: Q04DX003 (sc), vehicle: saline) was 31 % of control and the T/C (dose: 900.0 mg/kg/injection, schedule: Q04DX003 (sc), vehicle: saline) was -100 % of control.

`CN1CCN(Cc2nc3cccc4c3c([n+]2[O-])-c2ccccc2-4)CC1` was tested, and the T/C [3] was 83 % of control, the T/C [4] was 161 % of control and the T/C [5] was 180 % of control.

In the case of `Cc1ccc(C2NC(=S)N3C(c4ccc(C)cc4)NC(=S)N23)cc1` (stereo not drawn), the T/C [6] is reported as 64 % of control, the T/C [7] is reported as 66 % of control and the T/C [8] is reported as 80 % of control. For the same compound, the T/C [9] was 65 % of control.

`CC1=NNC(=O)C1CCO` (stereo not drawn) was tested, and the T/C [6] was 112 % of control, the T/C [7] was 115 % of control and the T/C [8] was 82 % of control. For the same compound, the T/C [9] was 106 % of control.

`O=C1NC(c2ccccc2)N=C2Oc3ccccc3C=C12` (stereo not drawn) was tested, and the T/C [3] was 186 % of control, the T/C [4] was 123 % of control and the T/C [5] was 85 % of control. The T/C [1] was 105 % of control and the T/C [2] was 58 % of control.

`CCCCCCCCCCCC(=O)NC1CC(O[C@H]2C[C@](O)(C(=O)CO)Cc3c(O)c4c(c(O)c32)C(=O)c2c(OC)cccc2C4=O)OC(C)C1O` (stereo partly drawn) was tested, and the T/C (dose: 300.0 mg/kg/injection, schedule: Q04DX003 (sc), vehicle: water) was 5 % of control, the T/C (dose: 600.0 mg/kg/injection, schedule: Q04DX003 (sc), vehicle: water) was 76 % of control and the T/C (dose: 1200.0 mg/kg/injection, schedule: Q04DX003 (sc), vehicle: water) was 55 % of control. For the same compound, the T/C (dose: 2400.0 mg/kg/injection, schedule: Q04DX003 (sc), vehicle: water) was 118 % of control.
